Source: patent US10526291B2, “Potent dual BRD4-kinase inhibitors as cancer therapeutics” (H. Lee Moffitt Cancer Center and Research Institute, Inc., priority 2014, dated 2020)
Values joined by “and” are separate entries in the source; they are usually repeats but may differ in a detail not shown here. Equal entries are not always repeated.

What was measured:
BRD4 = BRD4 (Homo sapiens, UniProt O60885); assay: Differential Scanning Fluorimetry (DSF), stability of BRD4 upon ligand binding; conditions: for ΔTm at 4 µM: 100 μM protein, 4 μM compound and 2% DMSO; for IC50: estimated
Description: DSF=Differential Scanning Fluorimetry; provides a measure of the increased stability of BRD4 upon ligand binding The DSF experiment was run at 100 μM protein, 4 μM compound and 2% DMSO.

MM.1S cells = assay: MM.1S cell survival, MTT assay; type: cell-based; conditions: Homo sapiens, MM1.S, 72 h, 72 hours compound exposure
MV4-11 AML cells = assay: MV-4-11 cell IC50 (antiproliferative activity); type: cell-based; conditions: Homo sapiens
Description: Cellular activity of promising compounds is assessed using MM.1S and MV4-11 AML cells using c-Myc levels as biomarker (6-12 hr treatment) and antiproliferative activity (48-72 hr treatment) as described (Ciceri et al., Dual kinase-bromodomain inhibitors for rationally designed polypharmacology. Nat Chem Biol 2014).

SAOS-2 = SAOS-2 cell IC50; type: cell-based; conditions: Homo sapiens
UKE-1 = UKE-1 cell IC50; type: cell-based; conditions: UKE1
NCI-H2052 = NCI-H2052 cell IC50; type: cell-based; conditions: Homo sapiens
FLT3 = biological target: T1, FLT3 (Homo sapiens, UniProt P36888); assay: FLT3 IC50 (RB, commercial kinase panel); type: biochemical
T1 construct: purchased
T1 sequence (P36888 27-993): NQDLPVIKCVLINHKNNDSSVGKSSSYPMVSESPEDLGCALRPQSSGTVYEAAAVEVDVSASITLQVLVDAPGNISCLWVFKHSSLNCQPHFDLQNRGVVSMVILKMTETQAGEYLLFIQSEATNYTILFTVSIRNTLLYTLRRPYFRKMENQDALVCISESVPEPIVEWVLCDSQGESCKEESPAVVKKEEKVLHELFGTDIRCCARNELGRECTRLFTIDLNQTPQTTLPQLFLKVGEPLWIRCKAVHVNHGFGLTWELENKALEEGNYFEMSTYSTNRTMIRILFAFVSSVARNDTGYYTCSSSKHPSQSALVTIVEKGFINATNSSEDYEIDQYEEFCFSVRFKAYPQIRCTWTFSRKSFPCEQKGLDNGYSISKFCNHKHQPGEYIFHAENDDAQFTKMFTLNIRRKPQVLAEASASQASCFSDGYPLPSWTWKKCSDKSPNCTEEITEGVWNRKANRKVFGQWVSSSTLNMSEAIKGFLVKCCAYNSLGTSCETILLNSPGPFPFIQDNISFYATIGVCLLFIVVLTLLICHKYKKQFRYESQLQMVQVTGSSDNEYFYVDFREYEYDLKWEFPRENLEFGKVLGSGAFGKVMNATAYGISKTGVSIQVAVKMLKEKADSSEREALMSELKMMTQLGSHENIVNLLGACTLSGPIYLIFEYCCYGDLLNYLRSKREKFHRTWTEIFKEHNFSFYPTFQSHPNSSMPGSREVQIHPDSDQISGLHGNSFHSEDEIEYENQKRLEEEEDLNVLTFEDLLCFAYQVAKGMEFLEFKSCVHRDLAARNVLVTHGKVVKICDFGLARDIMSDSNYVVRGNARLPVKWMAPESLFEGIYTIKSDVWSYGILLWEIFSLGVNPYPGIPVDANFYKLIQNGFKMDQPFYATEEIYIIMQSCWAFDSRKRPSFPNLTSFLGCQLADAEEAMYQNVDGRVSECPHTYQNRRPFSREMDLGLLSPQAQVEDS

BRD4-1 = biological target: T2, BRD4-1 (Homo sapiens, UniProt O60885); assay: BRD4-1 IC50; type: binding
T2 construct: BRD4-1; purchased

BRD4-2 = biological target: T3, BRD4-2 (Homo sapiens, UniProt O60885); assay: BRD4-2 IC50; type: binding
T3 construct: BRD4-2; purchased

BRDT-1 = biological target: T4, BRDT-1 (Homo sapiens, UniProt Q58F21); assay: BRDT-1 IC50; type: binding
T4 construct: BRDT-1; purchased

JAK2 = biological target: T5, JAK2 (Homo sapiens, UniProt O60674); assay: JAK2 IC50 (RB, commercial kinase panel); type: biochemical
T5 construct: purchased
T5 sequence (O60674 whole entry): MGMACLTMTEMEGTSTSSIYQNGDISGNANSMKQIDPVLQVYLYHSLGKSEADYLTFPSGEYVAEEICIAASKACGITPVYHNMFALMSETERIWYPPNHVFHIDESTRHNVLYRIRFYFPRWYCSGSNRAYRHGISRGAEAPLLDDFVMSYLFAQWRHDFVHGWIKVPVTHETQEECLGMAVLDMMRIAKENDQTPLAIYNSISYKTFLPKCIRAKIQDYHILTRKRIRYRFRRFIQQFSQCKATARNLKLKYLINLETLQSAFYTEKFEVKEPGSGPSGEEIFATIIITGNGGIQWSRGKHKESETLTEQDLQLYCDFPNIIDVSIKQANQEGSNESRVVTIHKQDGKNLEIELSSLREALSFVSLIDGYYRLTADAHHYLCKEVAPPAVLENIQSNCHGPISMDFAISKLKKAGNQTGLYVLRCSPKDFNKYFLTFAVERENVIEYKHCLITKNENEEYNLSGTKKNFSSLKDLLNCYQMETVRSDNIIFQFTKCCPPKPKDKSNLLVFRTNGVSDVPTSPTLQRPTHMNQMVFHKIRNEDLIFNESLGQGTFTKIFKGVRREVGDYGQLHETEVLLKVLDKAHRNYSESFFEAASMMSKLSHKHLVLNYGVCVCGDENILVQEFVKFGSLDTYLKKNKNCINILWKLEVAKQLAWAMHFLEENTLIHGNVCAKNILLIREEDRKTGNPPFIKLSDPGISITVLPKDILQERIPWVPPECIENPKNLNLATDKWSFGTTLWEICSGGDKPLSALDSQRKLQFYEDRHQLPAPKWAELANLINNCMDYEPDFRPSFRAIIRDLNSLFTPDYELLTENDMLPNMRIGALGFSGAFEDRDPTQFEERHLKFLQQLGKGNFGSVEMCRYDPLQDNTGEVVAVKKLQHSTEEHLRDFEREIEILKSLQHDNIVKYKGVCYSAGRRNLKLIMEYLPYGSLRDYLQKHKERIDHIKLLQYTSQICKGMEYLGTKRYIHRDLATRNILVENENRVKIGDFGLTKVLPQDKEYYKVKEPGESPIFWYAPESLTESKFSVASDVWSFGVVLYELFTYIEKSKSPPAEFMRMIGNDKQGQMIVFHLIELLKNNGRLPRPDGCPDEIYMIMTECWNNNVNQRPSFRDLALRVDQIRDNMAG

ΔTm at 4 µM (BRD4) [°C]	IC50 (BRD4)	IC50 (MV4-11 AML cells) [nM]	IC50 (SAOS-2) [nM]	IC50 (UKE-1) [nM]	IC50 (NCI-H2052) [nM]	IC50 (FLT3) [nM]	IC50 (BRD4-1) [nM]	IC50 (BRD4-2) [nM]	IC50 (BRDT-1) [nM]	IC50 (JAK2) [nM]	Compound	IC50 (MM.1S cells) [nM]
11 ± 0.04	4.8 nM and 1.3 nM	53.2	320	294	2500	10.7	11.2	17.5	19	–	Cc1cnc(Nc2ccc(N3CCN(C)CC3)c(F)c2)nc1Nc1ccc(Cl)c(NS(=O)(=O)C(C)(C)C)c1	59
9.5 ± 0.14	14 nM and 3.9 nM	26.8	133	200	1400	1.1	24.3	22	41.3	1.14	Cc1cnc(Nc2ccc(N3CCN(C)CC3)c(F)c2)nc1Nc1cccc(NS(=O)(=O)C(C)(C)C)c1	160
